The text below walks through data of US4791200A, “2-substituted-4-aryl-substituted thiazoles” (Ortho Pharmaceutical Corporation, priority 1987, dated 1988).

Assay [1] concerns parietal cells. Nature of the assay: Isolated Parietal Cell Assay (14C-aminopyrine accumulation, histamine or dibutyryl cAMP stimulated). The class given is cell-based, rabbit. Conditions: Oryctolagus cuniculus. As to the method:
The isolated parietal cell assay was conducted using the procedures of Batzri, S. et al., Biochemica et Biophysica Acta 508, 328 (1978) and Soll, A. H. Am. J. Physiol. 238, G366 (1980). Basically, parietal cells were isolated from the fundic mucosa of rabbit stomachs by a four-stage collagenase digestion process. The supernatant fractions from the last two stages of this process contain the individual parietal cells. This cell suspension was centrifuged and reconstituted in a modified Hank's buffer to contain 1-2×10^6 cells/ml. […] This accumulation was stimulated by histamine and was blocked by H2 antagonists. The cells were incubated with 0.4-0.5×10^6 cpm ^14 C-AP, with various concentrations of histamine as a stimulant, 1×10^-5 M isobutylmethylxanthine, and the test compound added in a 20 μl volume of buffer or DMSO. The flasks were incubated in a shaking water bath at 37° C. for 20 minutes. Two aliquots were then taken from each flask and cell pellets were collected by centrifugation. The pellets were solubilized with Protosol (New England Nuclear) and radioactivity determined by liquid scintillation spectrometry. Data is presented as the IC50 vhist, the concentration of compound required to inhibit ^14 C-AP accumulation in the histamine stimulated parietal cell by 50%.
When dibutyryl cAMP was used to stimulate the cells instead of histamine, a similar inhibition of ^14 C-AP accumulation was measured and the data are presented as the IC50 vcAMP, the concentration required to inhibit ^14 C-AP accumulation in the cAMP stimulated parietal cell by 50%.

In assay [2] the target is T1, parietal cell H^+ K^+ ATPase (Oryctolagus cuniculus, UniProt P27112).
T1 construct: determined in fundic mucosa from New Zealand white rabbits which were homogenized; from tissue; host or cells: fundic mucosa of New Zealand white rabbits, homogenized; membrane protein
Description: Inhibition of Parietal Cell H^+ K^+ ATPase. Conditions: read-out: % Inhibition at Concentration; for inhibition at 100 µM: at 10^-4 M. The assay is classed as biochemical, New Zealand white rabbits. As to the method:
The activity was measured in a 1 ml incubation volume containing 50 mM Tris pH 7.4, 2 mM MgCl2, 2 mM Na2 ATP, with or without 20 mM KCl and vehicle control (dimethylsulfoxide) or test compound added in a 0.02 ml volume. Typically, 20-50 μg membrane protein was added and the tubes were preincubated with test compound for 10 minutes at 37° C. Substrate, Na2 ATP, was then added and the tubes were incubated for another 15 minutes at 37° C. The reaction was stopped by the addition of 1 ml 14% trichloroacetic acid and the samples were centrifuged at 2,000 ×g for 10 minutes. The amount of inorganic phosphate present in an aliquot of supernatant was determined. H^+ K^+ ATPase activity was determined after correcting for the basal (Mg^++ only) enzyme activity present in the membrane preparation.

The test system of assay [3] is acid output (gastric secretion). Description: Gastric Secretion (pylorus ligation, modified Shay). The class given is in vivo, male Charles River Sprague Dawley derived rats. To be noted: i.d. or s.c., 4 hours after ligation; for response vs control in vivo at 40 mg/kg: Rattus norvegicus, at 40 mpK, read-out: % Acid Secreted at mpK; for % Acid Secreted at mpK: at 20 mpK. As to the method: The inhibitory activity of the compounds on acid output was tested using pylorus ligation in a modification of the procedure of Shay, H. et al., Gastroenterology 26, 906 (1954). Basically, male Charles River Sprague Dawley derived rats weighing 150-300 grams were deprived of food but not water for 18-24 hours prior to use. Water was withheld during the experiment, however. The rats were weighed, anesthetized with ether and the pylorus ligated according to the method of Shay et al., supra. Treatment or vehicle control was then administered intraduodenally (i.d.) or subcutaneously (s.c.). Rats were housed two/cage and sacrificed with CO2 four hours after ligation. The stomachs were removed, rinsed, and contents emptied into a graduated centrifuge tube. The tubes were centrifuged, the volume of gastric juice recorded, and any samples obviously contaminated by feces, food or blood were eliminated. A 1 ml aliquot of gastric juice was titrated with 0.1N NaOH to a pH of 7.0-7.4. The volume of gastric juice secreted, the acid concentration, and the product of the volume times the concentration, i.e., the total amount of acid secreted, were measured.

Where [4] appears, read: 20 min, histamine stimulated, 37° C., 20 minutes, read-out: IC50 vhist (inhibition of 14C-AP accumulation in the histamine stimulated parietal cell).
[5] abbreviates: dibutyryl cAMP stimulated, read-out: IC50 vcAMP (inhibition of 14C-AP accumulation in the cAMP stimulated parietal cell).

Read-outs that look alike come from different tables or passages of the source.

T1 sequence (P27112 2-1035 limits assumed): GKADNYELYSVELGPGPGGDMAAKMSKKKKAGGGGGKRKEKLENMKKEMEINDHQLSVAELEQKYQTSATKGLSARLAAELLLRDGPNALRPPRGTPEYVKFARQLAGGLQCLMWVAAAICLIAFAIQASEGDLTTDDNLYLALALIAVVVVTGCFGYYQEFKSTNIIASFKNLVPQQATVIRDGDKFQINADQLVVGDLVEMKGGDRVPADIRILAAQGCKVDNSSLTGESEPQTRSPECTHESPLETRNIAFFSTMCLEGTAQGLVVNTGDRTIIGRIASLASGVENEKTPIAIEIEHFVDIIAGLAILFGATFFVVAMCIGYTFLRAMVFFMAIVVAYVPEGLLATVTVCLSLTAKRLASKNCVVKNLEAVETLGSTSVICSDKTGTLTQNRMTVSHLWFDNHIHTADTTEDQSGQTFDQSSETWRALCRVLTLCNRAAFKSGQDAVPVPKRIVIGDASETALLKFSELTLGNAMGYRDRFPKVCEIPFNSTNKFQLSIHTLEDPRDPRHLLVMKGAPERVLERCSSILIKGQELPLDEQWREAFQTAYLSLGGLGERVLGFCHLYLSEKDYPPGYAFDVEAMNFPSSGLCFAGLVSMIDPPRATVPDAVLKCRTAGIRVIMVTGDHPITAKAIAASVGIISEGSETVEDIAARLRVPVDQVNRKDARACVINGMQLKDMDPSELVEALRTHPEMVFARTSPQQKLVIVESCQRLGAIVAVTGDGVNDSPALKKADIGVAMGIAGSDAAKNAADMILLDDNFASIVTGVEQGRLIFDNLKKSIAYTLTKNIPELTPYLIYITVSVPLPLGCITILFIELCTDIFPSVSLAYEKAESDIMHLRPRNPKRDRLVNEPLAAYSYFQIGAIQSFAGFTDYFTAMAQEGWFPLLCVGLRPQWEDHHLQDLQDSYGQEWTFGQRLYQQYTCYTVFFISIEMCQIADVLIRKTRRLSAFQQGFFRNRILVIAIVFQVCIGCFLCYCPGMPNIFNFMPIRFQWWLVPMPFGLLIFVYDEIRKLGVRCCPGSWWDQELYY
T1 sequence (P18597 whole entry partner): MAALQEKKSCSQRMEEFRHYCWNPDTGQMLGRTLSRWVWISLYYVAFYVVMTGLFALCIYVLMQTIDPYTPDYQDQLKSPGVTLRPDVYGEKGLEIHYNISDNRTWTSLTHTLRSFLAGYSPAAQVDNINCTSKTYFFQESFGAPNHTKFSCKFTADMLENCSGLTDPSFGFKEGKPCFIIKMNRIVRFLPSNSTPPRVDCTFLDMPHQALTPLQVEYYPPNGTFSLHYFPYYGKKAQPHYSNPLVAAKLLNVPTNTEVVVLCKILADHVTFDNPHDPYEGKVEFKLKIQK

As for `CCCCN(CCCC)CCCOc1ccc(-c2csc(-c3ccc(C(F)(F)F)cc3)n2)cc1` [Example 20, 4-(4-Dibutylaminopropoxyphenyl)-2-(4-trifluoromethylphenyl)thiazole], the values for the IC50 in assay [1] (setting [4]) and in assay [1] (setting [5]) were 2900 nM and 2000 nM, respectively. For the same molecule, the inhibition at 10.6 µM in assay [2] (at 10.6 μM) is 50%. Besides, in assay [3], the response vs control in vivo at 40 mg/kg was 40%.
On to `CCCCN(CCCC)CCCOc1ccc(-c2csc(-c3cccnc3)n2)cc1` [Example 21, 4-(4-Dibutylaminopropoxyphenyl)-2-(3-pyridinyl)thiazole], for which the IC50 in assay [1] (setting [4]) was found to be 1650 nM; in assay [1] (setting [5]), 880 nM. Further, the inhibition at 20 µM in assay [2] (at 20 μM) is 50%. The “% Acid Secreted at mpK” value in assay [3] worked out at 19%.
For `CCCCN(CCCC)CCCOc1c(Cl)cc(-c2csc(-c3ccccc3)n2)cc1Cl` [Example 22, 4-[3,5-Dichloro-4-(dibutylaminopropoxy)phenyl]-2-phenylthiazole], the IC50 in assay [1] (setting [4]) came to 580 nM; in assay [1] (setting [5]) it was 240 nM. The inhibition at 100 µM in assay [2] amounted to 29%. Moreover, the “% Acid Secreted at mpK” value in assay [3] is reported as 41%.
As for `Clc1cc(-c2csc(-c3ccccc3)n2)cc(Cl)c1OCCCn1ccnc1` [Example 23, 4-[3,5-Dichloro-4-(1H-imidazol-1-yl)propoxyphenyl]-2-phenylthiazole], the IC50 was determined as 400 nM in assay [1] (setting [4]) and 460 nM in assay [1] (setting [5]). Besides, the inhibition at 2.4 µM in assay [2] (at 2.4 μM) was 50%. The “% Acid Secreted at mpK” value in assay [3] is listed as 33%.
With `c1ccc(-c2nc(-c3ccc(OCCCn4cncn4)cc3)cs2)cc1` [Example 24, 4-[4-(1,2,4-Triazol-1-yl)propoxyphenyl]-2-phenylthiazole], the IC50 in assay [1] (setting [4]) is 10000 nM. In addition, in assay [2], the inhibition at 100 µM was 36%. Moreover, the response vs control in vivo at 40 mg/kg in assay [3] was 83%.
For `CCCCN(CCCC)CCCOc1ccc(-c2nc(-c3ccccc3)sc2CC)cc1` [Example 25, 5-Ethyl-4-(4-dibutylaminopropoxyphenyl)-2-phenylthiazole], the IC50 in assay [1] (setting [4]) worked out at 340 nM; in assay [1] (setting [5]), 240 nM. The inhibition at 100 µM in assay [2] was found to be 5%. Further, the “% Acid Secreted at mpK” value in assay [3] stood at 8%.
For the molecule `CCCCN(CCCC)CCCOc1ccc(-c2csc(-c3ccccc3)n2)cc1C` [Example 26], the figures for the IC50 in assay [1] (setting [4]) and in assay [1] (setting [5]) were 300 nM and 290 nM, respectively. Further, in assay [2], the inhibition at 100 µM turned out to be 23%. For the same molecule, in assay [3], the “% Acid Secreted at mpK” value stood at 64%.
Turning to `c1ccc(-c2nc(-c3cccc(OCCCn4ccnc4)c3)cs2)cc1` [Example 27], the 50% inhibitory concentration (IC50) in assay [1] (setting [4]) was 320 nM; in assay [1] (setting [5]), 290 nM. Also, the inhibition at 10.5 µM in assay [2] (at 10.5 μM) came to 50%. For the same molecule, the “% Acid Secreted at mpK” value in assay [3] worked out at 13%.
